Measured values from ChEMBL document CHEMBL4052809, “Development of a highly reliable assay for ubiquitin-specific protease 2 inhibitors” (Bioorg Med Chem Lett, 2017).
pIC50: −log10 of the molar value. Active and inactive are the calls of the source. The calls are words filed in the database; no cut-off is given here.

How the values were obtained:
[1] = target: T1, Ubiquitin carboxyl-terminal hydrolase 2 (Homo sapiens) (UniProt O75604); test: Inhibition of recombinant human N-terminal His-tagged USP2 catalytic domain (258 to 605 residues) expressed in Escherichia coli BL21(DE3) at 100 uM using human N-terminal GST-tagged UBA52 as substrate pretreated for 10 mins followed by substrate addition after 60 mins by coomassie staining based assay
T1 sequence (whole entry): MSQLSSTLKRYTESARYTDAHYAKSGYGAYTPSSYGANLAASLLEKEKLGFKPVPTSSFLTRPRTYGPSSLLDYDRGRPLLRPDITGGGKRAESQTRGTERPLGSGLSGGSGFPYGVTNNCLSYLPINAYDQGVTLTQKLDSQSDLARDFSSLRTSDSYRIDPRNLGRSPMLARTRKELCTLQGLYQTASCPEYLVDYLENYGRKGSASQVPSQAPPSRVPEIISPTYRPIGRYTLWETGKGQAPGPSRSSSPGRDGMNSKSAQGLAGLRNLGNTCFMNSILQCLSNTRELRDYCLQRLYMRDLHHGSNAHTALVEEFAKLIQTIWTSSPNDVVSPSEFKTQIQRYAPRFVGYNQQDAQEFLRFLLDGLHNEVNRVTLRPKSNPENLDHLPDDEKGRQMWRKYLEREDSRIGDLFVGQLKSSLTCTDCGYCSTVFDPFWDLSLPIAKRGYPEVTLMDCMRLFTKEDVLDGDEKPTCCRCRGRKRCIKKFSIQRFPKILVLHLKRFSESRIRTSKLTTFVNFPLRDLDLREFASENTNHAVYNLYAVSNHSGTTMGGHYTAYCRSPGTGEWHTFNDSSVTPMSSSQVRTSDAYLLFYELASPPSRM

[2] = target: T2, Ubiquitin carboxyl-terminal hydrolase 2 (Homo sapiens, UniProt O75604); test: Inhibition of recombinant human N-terminal His-tagged USP2 catalytic domain (258 to 605 residues) expressed in Escherichia coli BL21(DE3) using human N-terminal GST-tagged UBA52 as substrate pretreated for 10 mins followed by substrate addition after 60 mins by coomassie staining based assay
T2 sequence (O75604 whole entry): T1 sequence (whole entry)

In the case of `CC(=O)Nc1cccc(CNC(=O)c2sc3ccccc3c2OCc2ccccc2)c1`, the inhibition [1] was “Active” and the pIC50 [2] was 4.13 to 4.18.
